Results from EP0808832B1, “Fluorinated vitamin D3 analogs” (F. HOFFMANN-LA ROCHE AG, priority 1996, dated 1997).
Several values for one entry are separate records, joined by “and”; a condition that tells them apart may be missing. Identical values can stand only once. Like-named read-outs stand apart in the source and are kept apart here.

Experiments:
[1] = system: rats are ovariectomized (Ovx); type: in vivo, rat; conditions: for Whole Femur BMD: 3 to 6 weeks post-ovariectomy, right femur; for Urine Calcium/Creatinine 6th wk): 0.20 µg/kg once a day by mouth
Text: Three month old rats are ovariectomized (Ovx) and administered either 1,25-dihydroxy vitamin D3 (vit. D in Table) or one of the compounds of the present invention once a day by mouth starting at 3 weeks post-ovariectomy and continuing until final sacrifice at 6 weeks post-ovariectomy. Control groups, both sham (rats that were not ovariectomized) and Ovx, received vehicle only. Blood and urine samples were collected twice, at 4 weeks post-ovariectomy and again at the 6 week mark and the amount of serum and urine calcium was determined. The final femoral calcium determined upon sacrifice 6 weeks post- ovariectomy.
The bone mineral density (BMD) of the right femur was determined by using a High Resolution Software Package on a QDR-1000W Bone Densitometer™ (Hologic, Walthan, MA). The animals were scanned by placing them on a scanning block in a supine position such that the right leg was perpendicular to the main body and the tibia was perpendicular to the femur.
The increase in the bone mineral density and the amount of calcium in the urine and the serum for some of the compounds of this invention in this assay are given in the table below: […]

[2] = system: women with postmenopausal osteoporosis; conditions: 0.25 microgram twice daily, after 3 years, mild to moderate disease, compared with elemental calcium 1000 mg/day; cited from earlier work

Q: With `C=C1/C(=C\C=C2/CCC[C@]3(C)[C@@H](C4(CC#CC(C)(C)O)CC4)CC[C@@H]23)C[C@@H](O)C[C@@H]1F` [Cpd. 58, 1-α-Fluoro-25-hydroxy-23-yne-20,21,28-cyclopropylcholecalciferol] as the compound, how does the Whole Femur BMD ([1]; 5.00 µg/kg once a day by mouth) read?
A: 0.236 g/cm^2

Q: Which Whole Femur BMD ([1]; 2.00 µg/kg once a day by mouth) does the source give for `C=C1/C(=C\C=C2/CCC[C@]3(C)C([C@@H](C)CC#CC4(O)CCCC4)=CC[C@@H]23)C[C@@H](O)C[C@@H]1F` [Cpd. 59, 1-α-Fluoro-25-hydroxy-16-ene-23-yne-25,26,27-cyclopentyl-20-epi-cholecalciferol] here?
A: 0.233 g/cm^2

Q: For `C=C1/C(=C\C=C2/CCC[C@]3(C)C([C@@H](C)C/C=C/C(C)(O)C(F)(F)F)=CC[C@@H]23)C[C@@H](O)C[C@@H]1F` (stereo partly drawn) [Cpd. 57, 1-α-Fluoro-25(RS)-hydroxy-16,23E-diene-26-trifluoro-20-epi-cholecalciferol], which Whole Femur BMD ([1]; 1.50 µg/kg once a day by mouth) is on record?
A: 0.248 g/cm^2

Q: What does the source list for `C=C1/C(=C\C=C2/CCC[C@]3(C)[C@@H]([C@H](C)CCCC(C)(C)O)CC[C@@H]23)C[C@@H](O)C[C@@H]1O` [Vit D, 1,25-dihydroxy vitamin D3]?
A: lower rate of new vertebral fractures [2]: 3 fold; Urine Calcium/Creatinine 6th wk) [1]: 1.35 mg/dL and 1.44 mg/dL; Urine Calcium/Creatinine 6th wk) ([1]; listed as Vit. D): 0.76 mg/dL and 1.44 mg/dL and 1.48 mg/dL

Q: For `C=C1/C(=C\C=C2/CCC[C@]3(C)[C@@H](C4(CC#CC(O)(C(F)(F)F)C(F)(F)F)CC4)CC[C@@H]23)C[C@@H](O)C[C@@H]1F` [Cpd. 61, 1-α-Fluoro-25-hydroxy-23-yne-26,27-hexafluoro-20,21,28-cyclopropyl-cholecalciferol], which Whole Femur BMD ([1]; 0.50 µg/kg once a day by mouth) is on record?
A: 0.243 g/cm^2

Q: Which Whole Femur BMD ([1]; 0.10 µg/kg once a day by mouth) does the source give for `C=C1/C(=C\C=C2/CCC[C@]3(C)[C@@H](C4(C/C=C/C(O)(C(F)(F)F)C(F)(F)F)CC4)CC[C@@H]23)C[C@@H](O)C[C@@H]1F` [Cpd. 60, 1-α-Fluoro-25-hydroxy-23E-ene-26,27-hexafluoro-20,21,28-cyclopropyl-cholecalciferol] here?
A: 0.242 g/cm^2
